Reference: publication PMC7714403 (JCI Insight, 2020)

What was measured:
CDK9 = CDK9 (Homo sapiens, UniProt P50750); assay: KiNativ, OCI cells live cell; format: cell-based; conditions: 2 h
CSK = CSK (Homo sapiens, UniProt P41240); assay: KiNativ, OCI cells live cell; format: cell-based
PIP4K2B = PIP4K2B (Homo sapiens, UniProt P78356); assay: KiNativ, OCI cells live cell; format: cell-based; conditions: 2 h, labeling site ATP, peptide […]
MLK4 = MLK4 (Homo sapiens, UniProt Q5TCX8); assay: KiNativ, OCI cells live cell; format: cell-based; conditions: 2 h, labeling site Lys2, peptide […]
PIP4K2C = biological target: T1, PIP4K2C (Homo sapiens, UniProt Q8TBX8); assay: KiNativ, OCI cells live cell; format: cell-based; conditions: 2 h, labeling site ATP
T1 sequence (Q8TBX8 1-421): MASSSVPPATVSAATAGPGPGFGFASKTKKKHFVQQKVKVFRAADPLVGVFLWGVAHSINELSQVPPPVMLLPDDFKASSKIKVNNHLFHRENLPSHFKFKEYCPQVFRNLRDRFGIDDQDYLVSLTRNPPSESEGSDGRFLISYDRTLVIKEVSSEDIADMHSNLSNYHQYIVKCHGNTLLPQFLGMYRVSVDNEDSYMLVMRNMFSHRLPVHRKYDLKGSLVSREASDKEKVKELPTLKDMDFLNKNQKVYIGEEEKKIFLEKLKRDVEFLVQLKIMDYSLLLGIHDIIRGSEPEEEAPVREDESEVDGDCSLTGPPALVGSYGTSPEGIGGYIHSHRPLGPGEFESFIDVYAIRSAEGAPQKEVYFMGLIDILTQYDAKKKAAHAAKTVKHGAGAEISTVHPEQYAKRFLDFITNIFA

MST1 = MST1 (Homo sapiens, UniProt Q13043); assay: KiNativ, OCI cells live cell; format: cell-based; conditions: labeling site Lys1, peptide ETGQIVAIKQVPVESDLQEIIK
IRAK1 = IRAK1 (Homo sapiens, UniProt P51617); assay: KiNativ, OCI cells live cell; format: cell-based; conditions: 2 h, labeling site Lys2, peptide […]
PIK3CB = PIK3CB (Homo sapiens, UniProt P42338); assay: KiNativ, OCI cells live cell; format: cell-based; conditions: 2 h, labeling site ATP, peptide […]
TEC = TEC (Homo sapiens, UniProt P42680); assay: KiNativ, OCI cells live cell; format: cell-based; conditions: 2 h, labeling site Activation Loop, peptide […]
CDK2 = CDK2 (Homo sapiens, UniProt P24941); assay: KiNativ, OCI cells live cell; format: cell-based
MAP3K15, MAP3K5, MAP3K6 = assay: KiNativ, OCI cells live cell; format: cell-based, human; conditions: labeling site Lys1, peptide IAIKEIPER
ROCK1 = ROCK1 (Homo sapiens, UniProt Q13464); assay: KiNativ, OCI cells live cell; format: cell-based; conditions: 2 h, labeling site Other, peptide […]
PAN3 = biological target: T2, PAN3 (Homo sapiens, UniProt Q58A45); assay: KiNativ, OCI cells live cell; format: cell-based; conditions: 2 h, labeling site ATP
T2 sequence (Q58A45 1-887): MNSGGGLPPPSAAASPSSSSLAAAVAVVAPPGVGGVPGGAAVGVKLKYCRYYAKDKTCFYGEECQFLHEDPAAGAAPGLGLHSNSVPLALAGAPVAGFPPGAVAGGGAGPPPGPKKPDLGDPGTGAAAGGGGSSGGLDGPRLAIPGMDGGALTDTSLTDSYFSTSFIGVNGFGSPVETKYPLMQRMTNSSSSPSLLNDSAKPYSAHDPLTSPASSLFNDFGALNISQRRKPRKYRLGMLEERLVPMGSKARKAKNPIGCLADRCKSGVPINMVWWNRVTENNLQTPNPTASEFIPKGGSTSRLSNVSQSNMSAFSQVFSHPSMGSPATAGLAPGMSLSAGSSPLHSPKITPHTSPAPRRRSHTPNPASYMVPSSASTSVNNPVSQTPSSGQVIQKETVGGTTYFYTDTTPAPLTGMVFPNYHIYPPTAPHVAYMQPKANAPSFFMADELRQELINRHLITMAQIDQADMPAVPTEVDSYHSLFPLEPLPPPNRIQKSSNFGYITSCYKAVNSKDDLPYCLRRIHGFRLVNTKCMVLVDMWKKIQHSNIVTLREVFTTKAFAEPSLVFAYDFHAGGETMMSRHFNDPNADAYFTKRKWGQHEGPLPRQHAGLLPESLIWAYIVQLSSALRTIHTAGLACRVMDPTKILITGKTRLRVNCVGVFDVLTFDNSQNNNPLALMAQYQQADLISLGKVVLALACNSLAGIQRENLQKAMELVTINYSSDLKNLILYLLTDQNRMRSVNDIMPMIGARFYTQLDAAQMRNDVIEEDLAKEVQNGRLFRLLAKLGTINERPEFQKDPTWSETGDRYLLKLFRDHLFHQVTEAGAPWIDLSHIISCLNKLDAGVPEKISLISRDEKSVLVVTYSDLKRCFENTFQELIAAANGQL

TAO1, TAO3 = assay: KiNativ, OCI cells live cell; format: cell-based, human; conditions: labeling site Lys2, peptide DIKAGNILLTEPGQVK
LYN = LYN (Homo sapiens, UniProt P07948); assay: KiNativ, OCI cells live cell; format: cell-based; conditions: 2 h
CaMK1d = CaMK1d (Homo sapiens, UniProt Q8IU85); assay: KiNativ, OCI cells live cell; format: cell-based; conditions: 2 h
TLK2 = TLK2 (Homo sapiens, UniProt Q86UE8); assay: KiNativ, OCI cells live cell; format: cell-based; conditions: 2 h
FLT3 D835H = biological target: T3, FLT3 D835H (Homo sapiens, UniProt P36888, D835H); assay: KdELECT binding assay
T3 construct: purchased Eurofins DiscoverX

MST1, MST2 = assay: KiNativ, OCI cells live cell; format: cell-based, human; conditions: labeling site Lys2, peptide DIKAGNILLNTEGHAK

Sequence of CaMK1d (Q8IU85 whole entry): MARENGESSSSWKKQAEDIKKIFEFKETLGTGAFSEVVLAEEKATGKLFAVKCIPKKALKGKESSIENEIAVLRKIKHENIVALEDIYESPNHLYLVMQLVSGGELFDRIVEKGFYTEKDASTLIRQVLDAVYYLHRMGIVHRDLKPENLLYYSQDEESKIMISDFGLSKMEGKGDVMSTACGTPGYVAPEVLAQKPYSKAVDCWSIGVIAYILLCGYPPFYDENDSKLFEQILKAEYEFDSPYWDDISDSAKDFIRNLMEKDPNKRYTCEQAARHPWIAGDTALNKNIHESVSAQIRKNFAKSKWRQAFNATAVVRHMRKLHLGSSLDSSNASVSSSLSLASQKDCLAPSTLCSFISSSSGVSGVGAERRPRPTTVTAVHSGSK
Sequence of CDK9 (P50750 whole entry): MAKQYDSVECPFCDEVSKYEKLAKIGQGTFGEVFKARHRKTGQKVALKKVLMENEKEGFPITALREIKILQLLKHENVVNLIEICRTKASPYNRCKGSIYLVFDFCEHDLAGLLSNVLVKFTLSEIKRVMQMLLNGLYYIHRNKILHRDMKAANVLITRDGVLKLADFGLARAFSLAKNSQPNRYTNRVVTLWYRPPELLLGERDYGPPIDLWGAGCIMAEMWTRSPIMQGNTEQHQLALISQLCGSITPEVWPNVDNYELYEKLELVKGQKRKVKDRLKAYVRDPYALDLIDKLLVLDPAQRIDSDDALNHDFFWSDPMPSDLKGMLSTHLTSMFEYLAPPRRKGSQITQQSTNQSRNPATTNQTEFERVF
Sequence of CDK9 (O60563 whole entry partner): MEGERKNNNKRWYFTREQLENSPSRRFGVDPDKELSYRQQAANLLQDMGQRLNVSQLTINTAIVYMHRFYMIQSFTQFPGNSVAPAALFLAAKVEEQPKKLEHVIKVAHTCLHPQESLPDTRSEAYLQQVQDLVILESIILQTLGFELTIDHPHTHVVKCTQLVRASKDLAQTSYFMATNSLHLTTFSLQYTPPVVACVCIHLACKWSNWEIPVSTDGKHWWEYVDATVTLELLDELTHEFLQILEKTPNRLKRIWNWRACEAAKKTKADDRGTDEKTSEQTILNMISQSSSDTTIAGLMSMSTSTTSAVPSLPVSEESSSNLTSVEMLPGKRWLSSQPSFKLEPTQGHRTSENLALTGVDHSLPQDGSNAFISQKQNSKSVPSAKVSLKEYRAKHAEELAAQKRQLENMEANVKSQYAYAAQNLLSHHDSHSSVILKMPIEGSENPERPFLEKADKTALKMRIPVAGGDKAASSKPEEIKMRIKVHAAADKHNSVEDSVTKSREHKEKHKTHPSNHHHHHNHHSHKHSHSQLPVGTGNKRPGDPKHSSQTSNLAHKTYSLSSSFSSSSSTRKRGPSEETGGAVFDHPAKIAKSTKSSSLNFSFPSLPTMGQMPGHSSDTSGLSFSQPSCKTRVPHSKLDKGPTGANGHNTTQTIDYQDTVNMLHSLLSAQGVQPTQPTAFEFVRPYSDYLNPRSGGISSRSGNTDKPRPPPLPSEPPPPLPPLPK
Sequence of LYN (P07948 whole entry): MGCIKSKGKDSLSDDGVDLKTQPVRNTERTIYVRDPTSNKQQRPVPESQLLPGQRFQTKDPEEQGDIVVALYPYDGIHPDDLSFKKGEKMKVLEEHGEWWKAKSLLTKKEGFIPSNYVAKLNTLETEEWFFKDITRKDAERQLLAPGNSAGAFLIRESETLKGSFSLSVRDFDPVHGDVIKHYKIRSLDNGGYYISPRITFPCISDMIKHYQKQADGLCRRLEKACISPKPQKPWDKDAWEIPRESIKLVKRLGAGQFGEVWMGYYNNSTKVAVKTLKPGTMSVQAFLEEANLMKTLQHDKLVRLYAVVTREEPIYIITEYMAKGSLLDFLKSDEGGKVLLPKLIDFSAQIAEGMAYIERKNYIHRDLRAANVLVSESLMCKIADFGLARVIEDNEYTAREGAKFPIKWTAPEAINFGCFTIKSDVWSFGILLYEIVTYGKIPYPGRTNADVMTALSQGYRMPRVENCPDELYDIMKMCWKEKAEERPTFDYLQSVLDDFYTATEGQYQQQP
Sequence of TLK2 (Q86UE8 whole entry): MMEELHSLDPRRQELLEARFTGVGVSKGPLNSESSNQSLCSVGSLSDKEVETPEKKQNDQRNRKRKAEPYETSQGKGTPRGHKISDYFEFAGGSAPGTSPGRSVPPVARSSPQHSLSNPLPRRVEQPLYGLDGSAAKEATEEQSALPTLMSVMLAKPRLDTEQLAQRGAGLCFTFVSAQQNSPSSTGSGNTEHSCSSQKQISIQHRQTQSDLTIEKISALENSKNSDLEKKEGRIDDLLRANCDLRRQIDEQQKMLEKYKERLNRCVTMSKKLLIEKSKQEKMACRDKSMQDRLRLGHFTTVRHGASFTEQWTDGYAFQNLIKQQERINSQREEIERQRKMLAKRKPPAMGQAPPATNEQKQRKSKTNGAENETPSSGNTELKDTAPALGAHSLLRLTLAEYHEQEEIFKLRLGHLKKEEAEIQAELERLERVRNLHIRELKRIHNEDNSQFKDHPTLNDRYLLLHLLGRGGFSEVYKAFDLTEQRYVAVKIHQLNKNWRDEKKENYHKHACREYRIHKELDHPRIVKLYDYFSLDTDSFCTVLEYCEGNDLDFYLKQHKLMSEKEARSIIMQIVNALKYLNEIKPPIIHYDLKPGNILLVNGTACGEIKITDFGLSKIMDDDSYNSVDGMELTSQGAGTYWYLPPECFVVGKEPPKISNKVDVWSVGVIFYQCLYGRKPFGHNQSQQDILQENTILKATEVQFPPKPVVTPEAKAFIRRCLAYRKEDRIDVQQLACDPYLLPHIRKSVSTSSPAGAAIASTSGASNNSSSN
Sequence of CSK (P41240 whole entry): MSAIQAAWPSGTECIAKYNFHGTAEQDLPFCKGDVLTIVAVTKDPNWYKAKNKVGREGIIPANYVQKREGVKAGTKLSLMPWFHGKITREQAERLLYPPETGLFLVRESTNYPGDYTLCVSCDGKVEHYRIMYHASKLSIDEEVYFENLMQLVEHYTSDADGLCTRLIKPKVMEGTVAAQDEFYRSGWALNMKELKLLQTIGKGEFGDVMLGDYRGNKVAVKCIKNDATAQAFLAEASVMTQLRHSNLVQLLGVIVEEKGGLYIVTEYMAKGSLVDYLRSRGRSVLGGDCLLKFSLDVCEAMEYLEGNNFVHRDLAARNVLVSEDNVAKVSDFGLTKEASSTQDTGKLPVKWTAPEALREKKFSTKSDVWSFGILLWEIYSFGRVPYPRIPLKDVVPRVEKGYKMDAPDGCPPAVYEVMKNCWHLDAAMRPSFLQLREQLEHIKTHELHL
Sequence of IRAK1 (P51617 whole entry): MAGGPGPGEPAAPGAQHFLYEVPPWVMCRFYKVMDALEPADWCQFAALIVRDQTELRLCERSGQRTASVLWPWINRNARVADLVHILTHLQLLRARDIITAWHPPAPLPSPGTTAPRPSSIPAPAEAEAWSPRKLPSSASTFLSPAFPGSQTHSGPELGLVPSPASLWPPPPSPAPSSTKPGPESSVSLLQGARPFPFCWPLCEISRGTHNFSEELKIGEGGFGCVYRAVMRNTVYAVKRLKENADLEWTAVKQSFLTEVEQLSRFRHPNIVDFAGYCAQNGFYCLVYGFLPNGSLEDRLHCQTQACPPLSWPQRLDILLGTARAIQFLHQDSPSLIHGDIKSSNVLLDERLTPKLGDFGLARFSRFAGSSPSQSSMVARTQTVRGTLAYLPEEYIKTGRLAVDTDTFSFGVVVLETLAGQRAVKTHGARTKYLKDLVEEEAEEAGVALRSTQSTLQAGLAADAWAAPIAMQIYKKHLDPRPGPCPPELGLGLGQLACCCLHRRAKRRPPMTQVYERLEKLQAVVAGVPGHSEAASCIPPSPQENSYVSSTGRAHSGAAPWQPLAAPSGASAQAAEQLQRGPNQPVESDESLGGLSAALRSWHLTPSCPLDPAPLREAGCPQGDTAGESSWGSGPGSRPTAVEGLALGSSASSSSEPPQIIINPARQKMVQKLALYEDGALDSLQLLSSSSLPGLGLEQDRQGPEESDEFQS
Sequence of MLK4 (Q5TCX8 whole entry): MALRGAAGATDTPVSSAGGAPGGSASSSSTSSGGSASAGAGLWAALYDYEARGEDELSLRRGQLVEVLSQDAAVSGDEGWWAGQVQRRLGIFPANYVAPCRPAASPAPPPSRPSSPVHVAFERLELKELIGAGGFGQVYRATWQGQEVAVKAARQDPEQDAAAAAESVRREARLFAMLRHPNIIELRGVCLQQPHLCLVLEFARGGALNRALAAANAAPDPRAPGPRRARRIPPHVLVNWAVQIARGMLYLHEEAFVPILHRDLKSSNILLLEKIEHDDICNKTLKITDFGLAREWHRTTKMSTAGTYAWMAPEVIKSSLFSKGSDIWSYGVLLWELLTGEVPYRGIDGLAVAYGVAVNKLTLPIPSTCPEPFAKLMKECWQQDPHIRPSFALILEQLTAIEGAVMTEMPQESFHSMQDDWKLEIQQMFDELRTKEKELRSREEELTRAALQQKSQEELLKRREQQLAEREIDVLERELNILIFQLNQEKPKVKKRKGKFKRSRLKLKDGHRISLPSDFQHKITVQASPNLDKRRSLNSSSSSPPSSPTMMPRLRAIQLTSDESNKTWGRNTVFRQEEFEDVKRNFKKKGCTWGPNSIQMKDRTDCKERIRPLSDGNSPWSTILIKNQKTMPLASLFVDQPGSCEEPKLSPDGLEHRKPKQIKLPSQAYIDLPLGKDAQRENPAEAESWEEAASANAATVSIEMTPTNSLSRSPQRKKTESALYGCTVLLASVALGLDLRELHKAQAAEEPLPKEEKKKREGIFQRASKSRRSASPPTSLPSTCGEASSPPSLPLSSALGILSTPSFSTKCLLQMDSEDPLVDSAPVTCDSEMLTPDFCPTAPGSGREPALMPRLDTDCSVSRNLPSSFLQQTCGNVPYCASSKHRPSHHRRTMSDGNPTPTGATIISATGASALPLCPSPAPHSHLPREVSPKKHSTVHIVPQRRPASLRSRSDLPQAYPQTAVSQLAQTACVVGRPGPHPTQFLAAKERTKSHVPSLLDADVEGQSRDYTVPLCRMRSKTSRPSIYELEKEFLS

CN1CCN(Cc2ccc(Nc3ncc(Cl)c(Nc4ccccc4S(=O)(=O)N(C)C)n3)cc2)CC1 [TP-0903]
inhibition at 0.1 µM (CDK9; labeling site ATP Loop, peptide IGQGTFGEVFKAR): -30.7%
inhibition at 0.1 µM (CDK9; labeling site Lys2, peptide DMKAANVLITR): 32.9%
Inhibition (CSK; labeling site Activation Loop, peptide VSDFGLTKEASSTQDTGKLPVK): 11.9%
Inhibition (CSK; labeling site Lys1, peptide VAVKCIK): 0.379%
inhibition at 0.1 µM (PIP4K2B): -24.4%
inhibition at 0.1 µM (MLK4): 12.7%
inhibition at 0.1 µM (PIP4K2C; peptide TLVIKEVSSEDIADMHSNLSNYHQYIVK): -9.8%
inhibition at 0.1 µM (PIP4K2C; peptide VKELPTLKDMDFLNK): -19.6%
Inhibition (MST1): 33.6%
inhibition at 0.1 µM (IRAK1): 62.8%
inhibition at 0.1 µM (PIK3CB): -7.2%
inhibition at 0.1 µM (TEC): 31.9%
Inhibition (CDK2; labeling site Lys1, peptide LTGEVVALKK): 37.1%
Inhibition (CDK2; labeling site Lys2, peptide DLKPQNLLINTEGAIK): 41.4%
Inhibition (MAP3K15, MAP3K5, MAP3K6): -14.4%
inhibition at 0.1 µM (ROCK1): 25%
inhibition at 0.1 µM (PAN3; peptide IQKSSNFGYITSCYK): -8.4%
inhibition at 0.1 µM (PAN3; peptide VMDPTKILITGK): -9.4%
Inhibition (TAO1, TAO3): 73.9%
inhibition at 0.1 µM (LYN; labeling site Activation Loop, peptide EGAKFPIKWTAPEAINFGCFTIK): 19.1%
inhibition at 0.1 µM (LYN; labeling site Lys1, peptide VAVKTLKPGTMSVQAFLEEANLMK): 17.6%
inhibition at 0.1 µM (CaMK1d; labeling site Lys1, peptide LFAVKCIPK): 13%
inhibition at 0.1 µM (CaMK1d; labeling site Lys2, peptide DLKPENLLYYSQDEESK): 8.8%
inhibition at 0.1 µM (TLK2; labeling site Lys1, peptide YVAVKIHQLNK): -7.2%
inhibition at 0.1 µM (TLK2; labeling site Lys2, peptide YLNEIKPPIIHYDLKPGNILLVNGTACGEIK): -3.1%
Kd (FLT3 D835H): 1.9 nM
Inhibition (MST1, MST2): 35.6%
